Our source for the T/C values is PubChem BioAssay AID248 (DTP/NCI, 2004).

Molecules are shown by their SMILES. Where “and” joins values, the source holds several entries; their conditions need not be identical. Identical values can stand only once. Inconclusive results and toxic doses are left out.

The test concerns L1210 leukemia ip in BDF1 mice, survival T/C. The test is described as follows: NCI In Vivo Anticancer Drug Screen. Data for tumor model L1210 Leukemia (intraperitoneal) in B6D2F1 (BDF1) mice. Conditions: endpoint: mean survival time, higher = longer survival. In a few lines: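 Tumor was transplanted into mice, which were then dosed with test compound or vehicle alone. Survival was recorded for each group, and the treated figure was expressed relative to the control figure.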

Where [1] appears, read: dose: 100.0 mg/kg/injection, schedule: Q04DX003 (ip), vehicle: saline with Tween-80.
[2] abbreviates: dose: 200.0 mg/kg/injection, schedule: Q04DX003 (ip), vehicle: saline with Tween-80.
Setting [3] is: dose: 100.0 mg/kg/injection, schedule: Q01DX001 (ip), vehicle: saline.
Where [4] appears, read: dose: 200.0 mg/kg/injection, schedule: Q01DX001 (ip), vehicle: saline.
Where [5] appears, read: dose: 100.0 mg/kg/injection, schedule: Q04DX002 (ip), vehicle: Klucel (hydroxypropylcellulose) (HPC).
[6] abbreviates: dose: 200.0 mg/kg/injection, schedule: Q04DX002 (ip), vehicle: Klucel (hydroxypropylcellulose) (HPC).
Where [7] appears, read: dose: 400.0 mg/kg/injection, schedule: Q04DX002 (ip), vehicle: Klucel (hydroxypropylcellulose) (HPC).
[8] abbreviates: dose: 200.0 mg/kg/injection, schedule: Q01DX001 (ip), vehicle: Klucel (hydroxypropylcellulose) (HPC).

Consider `N#Cc1ncc(-c2ccccc2)nc1Cl`, for which the T/C runs as follows: (dose: 50.0 mg/kg/injection, schedule: Q01DX009 (ip), vehicle: saline with Tween-80) 94 % of control; (dose: 100.0 mg/kg/injection, schedule: Q01DX009 (ip), vehicle: saline with Tween-80) 96 % of control; under setting [1], 97 % of control; (dose: 200.0 mg/kg/injection, schedule: Q01DX009 (ip), vehicle: saline with Tween-80) 92 % of control; under setting [2], 95 % of control.

For `O=S(=O)(O)O.[NH-]CC(N)=O.[NH-]CC(N)=O.[Ni+2]`, the T/C is 109 % of control (dose: 6.25 mg/kg/injection, schedule: Q01DX009 (ip), vehicle: water); 97 % of control (dose: 12.5 mg/kg/injection, schedule: Q01DX009 (ip), vehicle: water); 90 % of control (dose: 25.0 mg/kg/injection, schedule: Q01DX009 (ip), vehicle: water).

Regarding `CCCCNS(=O)(=O)c1ccc(OC)c(NC(=O)c2ccc(C(=O)Nc3cc(S(=O)(=O)NCCCC)ccc3OC)cc2)c1`, the T/C was 105 % of control under setting [3]; 94 % of control under setting [4]; 94 % of control (dose: 400.0 mg/kg/injection, schedule: Q01DX001 (ip), vehicle: saline).

Take `CCCCCCCC(C)NCCCO` (stereo not drawn): where the note is “dose: 75.0 mg/kg/injection, schedule: Q01DX001 (ip), vehicle: saline”, the T/C was 90 % of control.

Take `c1ccc(C2OCCCOC2c2ccccc2)cc1` (stereo not drawn): the T/C (dose: 100.0 mg/kg/injection, schedule: Q01DX001 (ip), vehicle: carboxymethylcellulose (CMC)) was 97 % of control; the T/C (dose: 200.0 mg/kg/injection, schedule: Q01DX001 (ip), vehicle: carboxymethylcellulose (CMC)) was 97 % of control; the T/C (dose: 400.0 mg/kg/injection, schedule: Q01DX001 (ip), vehicle: carboxymethylcellulose (CMC)) is 103 % of control.

In the case of `COC(=O)C(c1ccccc1)C(Br)C(=O)c1ccc(Cl)cc1` (stereo not drawn), the T/C runs as follows: (dose: 100.0 mg/kg/injection, schedule: Q01DX009 (ip), vehicle: Klucel (hydroxypropylcellulose) (HPC)) 92 % of control; (dose: 200.0 mg/kg/injection, schedule: Q01DX009 (ip), vehicle: Klucel (hydroxypropylcellulose) (HPC)) 97 % of control; (dose: 400.0 mg/kg/injection, schedule: Q01DX009 (ip), vehicle: Klucel (hydroxypropylcellulose) (HPC)) 94 % of control.

As for `Cc1c(O)cc(O)cc1O`, the T/C is, setting by setting: under setting [3], 96 % of control; under setting [4], 98 % of control.

With `CCOP(=O)(OCCBr)C(c1ccccc1)(c1ccccc1)c1ccccc1` (stereo not drawn), the T/C runs as follows: under setting [5], 89 % of control; under setting [6], 92 % of control; under setting [7], 92 % of control.

In the case of `Nc1ncnc2c1ncn2C1OC(COP(=O)(O)OP(=O)(O)OP(=O)(O)O)C(O)C1O` (stereo not drawn), the T/C was 87 % of control (dose: 80.0 mg/kg/injection, schedule: Q01DX Z (ip), vehicle: saline); 87 % of control (dose: 120.0 mg/kg/injection, schedule: Q01DX Z (ip), vehicle: saline); 95 % of control (dose: 180.0 mg/kg/injection, schedule: Q01DX Z (ip), vehicle: saline); 98 % of control (dose: 270.0 mg/kg/injection, schedule: Q01DX Z (ip), vehicle: saline).

For the molecule `NC1=NC(CCc2ccccc2)N(c2ccc3ccccc3c2)C(N)=N1` (stereo not drawn), the T/C is 96 % of control (dose: 4.7 mg/kg/injection, schedule: Q01DX009 (ip), vehicle: saline sonified); 103 % of control (dose: 9.4 mg/kg/injection, schedule: Q01DX009 (ip), vehicle: saline sonified); 91 % of control (dose: 18.8 mg/kg/injection, schedule: Q01DX001 (ip), vehicle: saline).

For `COc1ccc(-n2cccc2C(N)=O)cc1OC`, the T/C was 103 % of control under setting [5], 100 % of control under setting [6] and 90 % of control under setting [7].

As for `CCNCC(=O)N(N=O)C(=O)OCC`, the T/C (dose: 75.0 mg/kg/injection, schedule: Q01DX001 (ip), vehicle: steriod suspending solution) is 110 % of control and the T/C (dose: 150.0 mg/kg/injection, schedule: Q01DX001 (ip), vehicle: steriod suspending solution) was 102 % of control.

As to `Cc1ccc2c(c1)[n+]([O-])c1nc(N)nc(N)c1[n+]2[O-]`, the T/C (dose: 50.0 mg/kg/injection, schedule: Q04DX002 (ip), vehicle: Klucel (hydroxypropylcellulose) (HPC)) is 93 % of control; the T/C (dose: 53.0 mg/kg/injection, schedule: Q01DX001 (ip), vehicle: Klucel (hydroxypropylcellulose) (HPC)) was 97 % of control; the T/C (dose: 88.0 mg/kg/injection, schedule: Q01DX001 (ip), vehicle: Klucel (hydroxypropylcellulose) (HPC)) is 96 % of control; the T/C under setting [5] was 102 % of control and 104 % of control; the T/C (dose: 133.0 mg/kg/injection, schedule: Q01DX001 (ip), vehicle: Klucel (hydroxypropylcellulose) (HPC)) was 91 % of control; the T/C under setting [8] is 97 % of control. Also, the T/C is, setting by setting: (dose: 300.0 mg/kg/injection, schedule: Q01DX001 (ip), vehicle: Klucel (hydroxypropylcellulose) (HPC)) 104 % of control; under setting [7], 98 % of control and 119 % of control.

On to `NNC(=O)c1cc(Cl)ccn1`, for which the T/C runs as follows: under setting [1], 96 % of control; under setting [2], 102 % of control; (dose: 400.0 mg/kg/injection, schedule: Q04DX003 (ip), vehicle: saline with Tween-80) 98 % of control.

Consider `Cc1ccc(N2P(N(C)C)N(c3ccc(C)cc3)P2(=O)N(C)C)cc1` (stereo not drawn), for which the T/C is 111 % of control under setting [5], 101 % of control under setting [6] and 101 % of control under setting [7].

As for `CCCCCNC(=S)Nc1ccccc1`, the T/C is 98 % of control (dose: 38.0 mg/kg/injection, schedule: Q04DX003 (ip), vehicle: other); 98 % of control (dose: 75.0 mg/kg/injection, schedule: Q01DX001 (ip), vehicle: other); 102 % of control (dose: 75.0 mg/kg/injection, schedule: Q04DX003 (ip), vehicle: other); 112 % of control (dose: 150.0 mg/kg/injection, schedule: Q01DX001 (ip), vehicle: other); 96 % of control (dose: 150.0 mg/kg/injection, schedule: Q04DX003 (ip), vehicle: other); 110 % of control (dose: 300.0 mg/kg/injection, schedule: Q01DX001 (ip), vehicle: other).

`CN(C)c1ccc(C=NCCCNC2CCCCC2)cc1`: the T/C runs as follows: (dose: 25.0 mg/kg/injection, schedule: Q04DX003 (ip), vehicle: other) 94 % of control; (dose: 50.0 mg/kg/injection, schedule: Q04DX003 (ip), vehicle: other) 102 % of control; under setting [3], 88 % of control.

`CCCCCCCCCCCCSc1ccc2ccccc2c1`: the T/C is 87 % of control (dose: 100.0 mg/kg/injection, schedule: Q01DX001 (ip), vehicle: Klucel (hydroxypropylcellulose) (HPC)) and 92 % of control under setting [8].

Turning to `Cc1ccc(CCC(=O)O)c2ccccc12`, the T/C was 93 % of control under setting [5] and 87 % of control under setting [6].

In the case of `O=C(Nc1ccc(C2=NCCN2)cc1)c1cc(Cl)cc(C(=O)Nc2ccc(C3=NCCN3)cc2)c1`, the T/C was 96 % of control and 104 % of control (dose: 62.5 mg/kg/injection, schedule: Q01DX009 (ip), vehicle: saline); 102 % of control (dose: 120.0 mg/kg/injection, schedule: Q01DX Z (oral), vehicle: carboxymethylcellulose (CMC)); 99 % of control and 106 % of control (dose: 125.0 mg/kg/injection, schedule: Q01DX009 (ip), vehicle: saline); 105 % of control (dose: 140.0 mg/kg/injection, schedule: Q01DX010 (ip), vehicle: saline); 107 % of control and 110 % of control (dose: 140.0 mg/kg/injection, schedule: Q01DX Z (ip), vehicle: methylcellulose (MC)); 109 % of control (dose: 210.0 mg/kg/injection, schedule: Q01DX010 (ip), vehicle: saline). Further, the T/C is, setting by setting: (dose: 210.0 mg/kg/injection, schedule: Q01DX Z (ip), vehicle: methylcellulose (MC)) 115 % of control; (dose: 240.0 mg/kg/injection, schedule: Q01DX Z (oral), vehicle: carboxymethylcellulose (CMC)) 104 % of control; (dose: 250.0 mg/kg/injection, schedule: Q01DX009 (ip), vehicle: saline) 96 % of control and 104 % of control; (dose: 315.0 mg/kg/injection, schedule: Q01DX010 (ip), vehicle: saline) 98 % of control and 105 % of control; (dose: 315.0 mg/kg/injection, schedule: Q01DX Z (ip), vehicle: methylcellulose (MC)) 179 % of control; (dose: 473.0 mg/kg/injection, schedule: Q01DX010 (ip), vehicle: saline) 107 % of control and 110 % of control. Further, the T/C reads like this: (dose: 473.0 mg/kg/injection, schedule: Q01DX Z (ip), vehicle: methylcellulose (MC)) 151 % of control; (dose: 480.0 mg/kg/injection, schedule: Q01DX Z (oral), vehicle: carboxymethylcellulose (CMC)) 107 % of control; (dose: 500.0 mg/kg/injection, schedule: Q01DX009 (ip), vehicle: saline) 103 % of control and 112 % of control; (dose: 960.0 mg/kg/injection, schedule: Q01DX Z (oral), vehicle: carboxymethylcellulose (CMC)) 100 % of control.
